US20230115176A1 (Ra Pharmaceuticals, Inc., priority 2019, published 2023)
pIC50, pKd: −log10 of the molar value. Converted amounts (≈) assume the structure as drawn.

Assays:
[1] = Permeability assay, unidirectional transport, Papp (Example 30, Table 34); format: in vitro ADME, canine; conditions: dog, pH 7.4; MDCK-WT cell monolayers, A-to-B, 3 μM test compound, 37° C., duplicate determinations
Procedure: Permeability assays were carried out to provide a preliminary indication of suitability for oral dosing and compound permeability across the blood brain barrier. Unidirectional and bidirectional compound transport across Madin Darby canine kidney (MDCK) cell monolayers was assessed. For unidirectional transport assessment, transport across MDCK wild type (MDCK-WT) cell monolayers was assessed. For bidirectional transport, transport across MDCK-MDR1 cell monolayers was assessed. MDCK-MDR1 cells express the MDR1 gene encoding the P-glycoprotein (P-gp) efflux protein.
MDCK-WT and MDCK-MDR1 cells were plated onto permeable polycarbonate supports in 12-well Costar transwell plates and allowed to grow and differentiate for 3 days. After 3 days in culture, the culture medium (DMEM supplemented with 10% FBS) was removed from both sides of the transwell inserts and cells were rinsed with warm HBSS. After the rinse step, the chambers were filled with warm transport buffer (HBSS containing 10 mM HEPES, 0.25% BSA, pH 7.4) and the plates were pre-incubated at 37° C. for 30 minutes prior to TEER (Trans Epithelial Electric Resistance) measurements.
The buffer in the donor chamber (apical side for A-to-B assay, basolateral side for B-to-A assay) was removed and replaced with the working solution (3 μM test compound and 10 μM for control compounds in transport buffer). The plates were then placed at 37° C. under light agitation. At designated time points (30, 60 and 90 min), an aliquot of transport buffer from the receiver chamber was removed and replenished with fresh transport buffer. Samples were quenched with ice-cold ACN containing internal standard and then centrifuged to pellet protein. Resulting supernatants were further diluted with 50/50 ACN/H2O (Atenolol diluted in just water) and submitted for LC-MS/MS analysis. Apparent permeability (Pap) values were calculated from duplicate determinations. Atenolol and propranolol were tested as low and […] permeability references.
Papp values indicate extent of compound permeation across monolayers.

[2] = target: human C5 complement protein (Homo sapiens, UniProt P01031); assay: Surface plasmon resonance (SPR), immobilized human C5, 37° C. (Example 27, Table 31); format: binding; conditions: lowest value obtained where a range of concentrations was analyzed (Table 31)
Human C5 [3] = target: T1, Human C5 (Homo sapiens, UniProt P01031); assay: Red blood cell (RBC) hemolysis assay, luminescent (Example 28, Table 32); format: cell-based; conditions: sheep EA cells, 1.5% C5-depleted human serum, 0.5 nM human C5, 1 hour at 37° C., luminescence (Table 32)
T1 construct: purchased Complement Technology

[4] = Kinetic solubility in PBS pH 7.4, HPLC-UV (Example 21, Table 27); format: physicochemical; conditions: phosphate buffered saline, aqueous buffer, kinetic from dmso stock, 0.5 M PBS, shaken minimum 24 h at approximately 25° C., HPLC-UV 270 nm
How it was run: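 10 mM DMSO stock diluted into 0.05 M PBS pH 7.4 (5% DMSO final), in triplicate, shaken ≥24 h at ~25 °C, then filtered by centrifugation. Supernatant concentration by HPLC-UV at 270 nm against external DMSO standards (15.6–500.0 μM).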

Human C5 [5] = target: T1, Human C5; assay: Hemolysis assay, luminescent, classical complement pathway (Example 4, Table 7); format: cell-based; conditions: sheep EA cells, 1.5% C5-depleted human serum, 0.5 nM human C5, luminescence readout
Source text: Numbers in parenthesis following the compound number indicate alternate enantiomers (as distinguished by retention time during chromatographical separation).

Sequence of human C5 complement protein (P01031 19-1676): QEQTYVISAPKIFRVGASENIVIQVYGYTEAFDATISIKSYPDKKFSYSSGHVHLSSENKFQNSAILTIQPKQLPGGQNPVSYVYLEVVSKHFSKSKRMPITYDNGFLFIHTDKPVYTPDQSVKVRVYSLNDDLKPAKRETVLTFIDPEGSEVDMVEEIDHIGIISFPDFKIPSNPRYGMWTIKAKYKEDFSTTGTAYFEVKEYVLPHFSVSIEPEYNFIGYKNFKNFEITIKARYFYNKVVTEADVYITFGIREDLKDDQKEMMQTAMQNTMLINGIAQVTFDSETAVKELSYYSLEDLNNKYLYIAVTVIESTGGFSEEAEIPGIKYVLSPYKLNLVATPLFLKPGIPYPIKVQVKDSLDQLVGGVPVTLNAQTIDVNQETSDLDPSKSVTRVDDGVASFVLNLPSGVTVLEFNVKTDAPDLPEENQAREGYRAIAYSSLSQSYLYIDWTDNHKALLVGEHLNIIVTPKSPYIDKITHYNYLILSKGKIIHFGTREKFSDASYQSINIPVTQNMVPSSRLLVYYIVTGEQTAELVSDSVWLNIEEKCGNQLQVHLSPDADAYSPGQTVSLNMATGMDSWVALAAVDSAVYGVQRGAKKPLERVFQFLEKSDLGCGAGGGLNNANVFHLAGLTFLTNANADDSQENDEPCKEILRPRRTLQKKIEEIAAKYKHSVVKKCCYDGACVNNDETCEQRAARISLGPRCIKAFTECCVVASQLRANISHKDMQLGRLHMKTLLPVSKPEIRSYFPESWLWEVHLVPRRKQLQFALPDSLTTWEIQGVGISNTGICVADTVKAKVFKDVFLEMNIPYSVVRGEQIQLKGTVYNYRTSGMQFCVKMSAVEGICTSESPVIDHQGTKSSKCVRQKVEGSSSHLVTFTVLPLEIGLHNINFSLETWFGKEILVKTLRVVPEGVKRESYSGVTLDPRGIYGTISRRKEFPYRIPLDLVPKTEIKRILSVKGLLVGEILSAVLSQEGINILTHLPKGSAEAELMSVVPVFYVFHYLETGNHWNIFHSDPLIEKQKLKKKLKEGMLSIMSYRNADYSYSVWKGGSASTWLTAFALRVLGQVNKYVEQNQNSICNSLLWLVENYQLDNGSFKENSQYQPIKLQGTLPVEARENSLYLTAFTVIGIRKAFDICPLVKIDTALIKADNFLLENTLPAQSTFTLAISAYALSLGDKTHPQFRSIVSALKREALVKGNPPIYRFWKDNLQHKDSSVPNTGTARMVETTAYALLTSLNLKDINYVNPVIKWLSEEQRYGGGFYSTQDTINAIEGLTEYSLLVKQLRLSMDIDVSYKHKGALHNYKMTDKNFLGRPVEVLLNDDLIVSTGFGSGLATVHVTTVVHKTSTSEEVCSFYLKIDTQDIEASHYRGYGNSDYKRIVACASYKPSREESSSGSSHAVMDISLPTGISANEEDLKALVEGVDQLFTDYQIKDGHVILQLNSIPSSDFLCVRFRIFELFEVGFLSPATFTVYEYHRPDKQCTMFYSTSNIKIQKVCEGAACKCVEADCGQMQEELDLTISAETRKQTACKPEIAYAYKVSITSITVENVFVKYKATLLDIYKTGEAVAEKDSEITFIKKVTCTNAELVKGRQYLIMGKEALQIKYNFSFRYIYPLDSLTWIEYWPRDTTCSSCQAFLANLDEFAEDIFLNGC
T1 sequence (P01031 19-1676): as above

| Papp A→B at 3 μM [1] | pKd [2] | solubility kinetic [4] | SMILES | pIC50 (Human C5 [3]) | pIC50 (Human C5 [5]) |
| --- | --- | --- | --- | --- | --- |
| 17.9 ×10⁻⁶ cm/s | 10.70 |  | CCCCCOc1cc(N2CC[C@H](C)N(Cc3ccnc4c3c(Cl)cn4CC(=O)N3CCOC3)C2=O)ccc1OC [SC0113] | 8.89 |  |
|  | 10.70 | < 10 µM | COc1ccc(N2CC[C@H](C)N(Cc3cccc4c3c(Cl)cn4CC(=O)N(C)C)C2=O)cc1OCCCC1CC1 [SC0116] | 8.85 |  |
|  | 8.92 | 65 µM (≈ 36.9 µg/mL) | COc1ccc(N2CC[C@H](C)N(Cc3ccnc4c3c(Cl)cn4CC(=O)N(C)C)C2=O)cc1OCCCC1CC1 [SC0119] | 8.85 |  |
|  | 9.66 | 81 µM (≈ 46 µg/mL) | CCCCCOc1cc(N2CC[C@H](C)N(Cc3ccnc4c3c(Cl)cn4CC(=O)N3CCC3)C2=O)ccc1OC [SC0122] | 8.82 |  |
|  | 10.70 | < 10 µM | CCCCCOc1cc(N2CC[C@H](C)N(Cc3cccc4c3c(Cl)cn4CC(=O)N3CCCOCC3)C2=O)ccc1OC [SC0128] | 8.77 |  |
|  | 9.04 | < 10 µM | CCCCCOc1cc(N2CC[C@H](C)N(Cc3cccc4[nH]cc(C)c34)C2=O)ccc1OC [SC0148] | 8.66 |  |
|  | 10.40 | 315 µM (≈ 206 µg/mL) | CCCCCOc1cc(N2CC[C@H](C)N(Cc3cccc4c3c(Cl)cn4CC(=O)N3CCOC(CN(C)C)C3)C2=O)ccc1OC (stereo partly shown) [SC0154] | 8.64 |  |
|  | 9.05 | 450 µM (≈ 255 µg/mL) | CCCCCOc1cc(N2CC(C)CN(Cc3ccc(CC(=O)N4CCNC(=O)C4)cc3OC)C2=O)ccc1OC (stereo not shown) [SC0163] | 8.55 |  |
|  | 8.65 | 490 µM (≈ 259 µg/mL) | CCCCCOc1cc(N2CC(CO)CN(Cc3ccc(CC(=O)N(C)C)cc3OC)C2=O)ccc1OC (stereo not shown) [SC0172] | 8.42 |  |
|  | 9.11 | 40 µM (≈ 21.3 µg/mL) | COc1ccc(N2CC[C@H](C)N(Cc3cccc4c3ccn4CC(=O)N(C)C)C2=O)cc1OCCCC1CC1 [SC0174] | 8.37 |  |
|  | 8.97 | 443 µM (≈ 258 µg/mL) | CCCCCOc1cc(N2CC(CO)CN(Cc3ccc(CC(=O)N4CCNC(=O)C4)cc3OC)C2=O)ccc1OC (stereo not shown) [SC0178] | 8.32 |  |
|  | 8.41 | > 500 µM | CCCCCOc1cc(N2CC(CO)CN(Cc3ccc(CC(=O)N4CCOCC4)cc3OC)C2=O)ccc1OC (stereo not shown) [SC0183] | 8.28 |  |
|  | 8.53 | 411 µM (≈ 228 µg/mL) | CCCCCOc1cc(N2CC(CO)CN(Cc3ccc(CC(=O)N4CCCC4)cc3OC)C2=O)ccc1OC (stereo not shown) [SC0184] | 8.24 |  |
|  |  |  | C#CC(=O)NCc1cc(OC)c(OCCCCC)cc1NC(=O)N1CCC[C@@H]1c1ccccc1Cl [SM0201] |  | 7.05 |
|  |  |  | CCCCCOc1cc(NC(=O)N2CCC[C@@H]2c2ccccc2Cl)c(CNC(=O)/C=C/CN(C)C)cc1OC [SM0202] |  | 6.62 |
|  |  |  | CCCCCOc1cc(NC(=O)N2CCC[C@@H]2c2ccccc2Cl)c(CNC(=O)CCl)cc1OC [SM0203] |  | 6.59 |
|  |  |  | CCCCCOc1cc(NC(=O)N(CC(=O)O)Cc2cc(F)ccc2OC)ccc1OC [SM0204] |  | 6.12 |
|  |  |  | CCCCCOc1cc(NC(=O)N(CC(=O)NCc2cccnc2)Cc2cc(F)ccc2OC)ccc1OC [SM0205] |  | 5.89 |
|  |  |  | CCCCCOc1cc(NC(=O)N(CC(=O)NCCN2CCCC2)Cc2cc(F)ccc2OC)ccc1OC [SM0206] |  | 5.69 |
|  |  |  | CCCCCOc1cc(NC(=O)N(CC(=O)NCC2CC(=O)N(C)C2)Cc2cc(F)ccc2OC)ccc1OC (stereo not shown) [SM0208] |  | 6.04 |
|  |  |  | CCCCCOc1cc(NC(=O)N(CC(=O)NC2CCN(C(C)=O)CC2)Cc2cc(F)ccc2OC)ccc1OC [SM0209] |  | 5.94 |
|  |  |  | CCCCCOc1cc(NC(=O)N(CC(=O)N2CCOCC2)Cc2cc(F)ccc2OC)ccc1OC [SM0210] |  | 5.67 |
|  |  |  | CCCCCOc1cc(NC(=O)N(CC(=O)N(C)C)Cc2cc(F)ccc2OC)ccc1OC [SM0211] |  | 5.72 |
|  |  |  | CCCCCOc1cc(NC(=O)N(CC(=O)NC)Cc2cc(F)ccc2OC)ccc1OC [SM0212] |  | 6.06 |
|  |  |  | CCCCCOc1cc(NC(=O)N(CC(N)=O)Cc2cc(F)ccc2OC)ccc1OC [SM0213] |  | 6.04 |
|  |  |  | CCCCCOc1cc(NC(=O)N(CCC(=O)O)Cc2cc(F)ccc2OC)ccc1OC [SM0214] |  | 6.76 |
